Experimental data from patent publication US9750248B2, “Synergistic fungicidal compositions” (Dow AgroSciences LLC, priority 2012, dated 2017).

What was measured:
Assay type in all cases: in vivo
[1] = test system: Puccinia recondita-tritici (PUCCRT); experiment: Control of wheat brown rust, one-day protective (1DP) application, greenhouse; conditions: for A % DC: component A alone; for B % DC: component B alone
Experimental: (§1) For the mixture studies with compound of Formula I: Treatments consisted of fungicides, including a compound of Formula I, tebuconazole, propiconazole, metconazole, and cyproconazole, applied either individually or as two-way mixtures with a compound of Formula I. Technical grades of materials were dissolved in acetone to make stock solutions which were used to perform three-fold dilutions in acetone for each individual fungicide component or for the two-way mixtures. Desired fungicide rates were obtained after mixing dilutions with nine volumes of water containing 110 parts per million (ppm) Triton X-100. The fungicide solutions (10 milliliters (mL)) were applied onto six pots of plants using an automated booth sprayer, which utilized two 6218-1/4 JAUPM spray nozzles operating at 20 pounds per square inch (psi) set at opposing angles to cover both leaf surfaces. All sprayed plants were allowed to air dry prior to further handling. Control plants were sprayed in the same manner with a solvent blank.
(§2) For the one-day protectant experiments, the plants were inoculated with an aqueous spore suspension of the pathogen of interest (either PUCCRT or SEPTTR) and then placed in a dew room from 1-3 days to allow for infection to occur. The plants were then placed in the greenhouse for symptom development to occur. In the case of PUCCRT, symptoms typically appeared in 7-10 days while for SEPTTR symptoms typically appeared in 25-30 days.
(§3) When disease severity reached 50-100% on the control plants, infection levels were assessed on treated plants visually and scored on a scale of 0 to 100 percent. The percentage of disease control was then calculated using the ratio of disease on treated plants relative to control plants.
(§4) The Colby equation was used to determine the fungicidal effects expected from the mixtures. (See Colby, S. R. Calculation of the synergistic and antagonistic response of herbicide combinations, Weeds 1967, 15, 20-22.). More specifically, in Tables 1-5, Colby's equation was used to calculate the expected activity of mixtures containing two active ingredients, A and B: Expected=A+B−(A×B/100), wherein

[2] = test system: Puccinia recondita-tritici (PUCCRT); experiment: Control of wheat brown rust, three-day curative (3DC) application, greenhouse; conditions: for A % DC: component A alone; for B % DC: component B alone
Experimental: as §1
(§5) For the three-day curative experiments, plants were inoculated with an aqueous spore suspension of the pathogen of interest (either PUCCRT or SEPTTR) and then placed in a dew room from 1-3 days to allow for infection to occur. The plants were removed from the dew room, allowed to dry for approximately one hour (h), sprayed with the test materials formulated as described above, and then placed in the greenhouse for symptom development to occur as described previously.
as §3, §4

[3] = test system: Septoria tritici (SEPTTR); experiment: Control of wheat leaf blotch, one-day protective (1DP) application, greenhouse; conditions: for A % DC: component A alone; for B % DC: component B alone
Experimental: as §1, §2, §3, §4

[4] = test system: Septoria tritici (SEPTTR); experiment: Control of wheat leaf blotch, three-day curative (3DC) application, greenhouse; conditions: for A % DC: component A alone; for B % DC: component B alone
Experimental: as §1, §5, §3, §4

[5] = test system: Puccinia recondita-tritici (PUCCRT); experiment: Control of wheat brown rust in a field research trial; conditions: for B % DC: component B alone
Experimental: as §4
The field trial was conducted at the Dow AgroSciences field station located at Mogi Mirim, Brazil. There were four replicate plots per treatment, with each plot 2×3.5 meters in length and width. The plots were sprayed with the treatments twice, once at growth stage BBCH 33 and again at growth stage BBCH 61-65. Treatments were applied with spray volumes of 150 liters/hectare (L/ha) with an XR flat fan nozzle. Disease development relied on natural inoculum (no artificial infestation). Ten plants per plot were used for each disease severity assessment, with all leaves per plant used for the assessment.

| SMILES | B % DC ([1]; 0.1 ppm) | B % DC ([1]; 0.4 ppm) | B % DC ([1]; 1.6 ppm) | B % DC ([1]; 6.3 ppm) | B % DC ([2]; 0.4 ppm) | B % DC ([3]; 0.4 ppm) | B % DC ([3]; 1.6 ppm) | B % DC ([4]; 0.1 ppm) | B % DC ([3]; 0.1 ppm) | B % DC ([2]; 1.6 ppm) | also measured |
| --- | --- | --- | --- | --- | --- | --- | --- | --- | --- | --- | --- |
| COc1ccnc(C(=O)N[C@H]2COC(=O)[C@H](Cc3ccccc3)[C@@H](OC(=O)C(C)C)[C@H](C)OC2=O)c1OCOC(=O)C(C)C [Cmpd I, (3S,6S,7R,8R)-8-benzyl-3-(3-((isobutyryloxy)methoxy)-4-methoxypicolinamido)-6-methyl-4,9-dioxo-1,5-dioxonan-7-yl isobutyrate] | – | – | – | – | – | – | – | – | – | – | A % DC ([1]; 0.4 ppm): 0%; A % DC ([1]; 1.6 ppm): 19.6%; A % DC ([1]; 6.3 ppm): 85.5%; A % DC ([2]; 0.1 ppm): 0%; A % DC ([2]; 0.4 ppm): 0%; A % DC ([2]; 1.6 ppm): 0%; A % DC ([2]; 6.3 ppm): 0%; A % DC ([3]; 0.1 ppm): 7%; A % DC ([3]; 0.4 ppm): 19%; A % DC ([3]; 1.6 ppm): 53%; A % DC ([4]; 0.1 ppm): 45.3%; A % DC ([4]; 1.6 ppm): 55.2%; A % DC ([4]; 6.3 ppm): 70.1%; A % DC ([5]; component A alone, 150 g ai/ha): 34.1% |
| CC(C1CC1)C(O)(Cn1cncn1)c1ccc(Cl)cc1 (stereo not drawn) [Cyproconazole, α-(4-chlorophenyl)-α-(1-cyclopropylethyl)-1H-1,2,4-triazole-1-ethanol] | 0% | 0% | 27% | 57% | 82% | 9% | 19% | 44.0% | – | – | B % DC ([5]; 40 g ai/ha): 38% |
| CC1(C)CCC(Cc2ccc(Cl)cc2)C1(O)Cn1cncn1 (centres unmarked) [Metconazole, 5-[(4-chlorophenyl)methyl]-2,2-dimethyl-1-(1H-1,2,4-triazol-1-ylmethyl)cyclopentanol] | – | 0% | 8% | 87% | 4% | – | – | – | 9% | – | – |
| CCCC1COC(Cn2cncn2)(c2ccc(Cl)cc2Cl)O1 (centres unmarked) [Propiconazole, 1-[[2-(2,4-dichlorophenyl)-4-propyl-1,3-dioxolan-2-yl]methyl]-1H-1,2,4-triazole] | 0% | – | 0% | 0% | – | – | 29% | – | 0% | 2% | B % DC ([2]; 6.3 ppm): 93%; B % DC ([3]; 6.3 ppm): 68% |
| COC(=O)N(OC)c1ccccc1COc1ccn(-c2ccc(Cl)cc2)n1 [Pyraclostrobin, pyraclostrobin] | – | – | – | – | – | – | – | – | – | – | B % DC ([5]; 60 g ai/ha): 85.8% |
| CC(C)(C)C(O)(CCc1ccc(Cl)cc1)Cn1cncn1 (stereo not drawn) [Tebuconazole, α-[2-(4-chlorophenyl)ethyl]-α-(1,1-dimethylethyl)-1H-1,2,4-triazole-1-ethanol] | 0% | 0% | 18% | 82% | 2% | 0% | 34% | 23.0% | – | 87% | B % DC ([5]; 140 g ai/ha): 74.3% |
